Measured values reported in US20090233999A1, “COMPOSITIONS AND THERAPEUTIC METHODS INVOLVING ISOFLAVONES AND ANALOGUES THEREOF” (NOVOGEN RESEARCH PTY LTD, priority 1999, published 2009).

Tests used:
NFκB = NFκB promoter activity, beta-lactamase reporter THP-1 cells stimulated with TNFα; type: cell-based; conditions: 30 μM; TNFα-stimulated THP-1 cells
Protocol: The assay utilised a genetically modified THP-1 cell line containing a stably-transfected beta-lactamase reporter gene under control of the NFkB response element and GeneBLAzer® beta-lactamase technology (Invitrogen Corp). The cells respond to stimulation with TNFα, causing activation of the NFκB signaling pathway. Co-incubation of cells with TNFα and test material allows quantitative determination of the ability of test material to inhibit TNFa-stimulated beta-lactamase production. An inflammatory index was calculated as the ratio of beta-lactamase product to beta-lactamase substrate.
THP-1 cells were seeded into wells of a 96-well plate in the presence of RPMI 1640 medium. TNFα was added to each well to give a final concentration of 7.5 ng/ml and dialyzed bovine serum was added. Compounds dissolved in DMSO were then added. Each plate also contained no-cell controls, no-serum controls and serum controls. Plates were incubated for 5 h at 37° C. to allow for NFκB-stimulated beta-lactamase production. LiveBLAzer™ FRET B/G Substrate (CCF4-AM) substrate was then added to assay. Once CCFA-AM enters a cell, it is converted to negatively charged CCF4 by endogenous esterases. Excitation of this substrate at 409 nm leads to efficient FRET between the coumarin and fluorescein moieties, resulting in a green fluorescence detectable at 530 nm. The presence of beta-lactamase leads to cleavage of CCF4 and results in a loss of FRET, resulting in a robust blue fluorescent signal detectable at 460 nm. Thus, activity of beta-lactamase (a marker of NFκB-promoter activity) is measured as a product to substrate ratio (blue/green fluorescence ratio: 460 nm/530 nm).

[1] = tested on: splenocytes (T and B cells); assay: Murine splenocyte viability and proliferation (Con A, LPS, no mitogen; MTT); type: cell-based, mouse; conditions: 10 μM, 3 day; for proliferation of T and B cells: Con A / LPS; for effect on non-proliferating (resting) splenocytes: no mitogen
Protocol: (§1) Male Skh-1 (hairless) mice, approximately six weeks old were killed by cervical dislocation. Single cell suspensions were made from the spleen and erythrocytes were lysed in buffer (0.14M NH4Cl, 17 mM Tris, pH 7.2). The remaining splenocytes were cultured in RPMI-1640 (Gibco) supplemented with 10% (v:v) FBS, 2 mM L-glutamine, pen/strep and 50 μM 2-mercaptoethanol. Splenocytes were added to quadruplicate wells containing either the T cell mitogen concanavalin A (Con A, Sigma-Aldrich—0. 4 μg/well), the B-cell mitogen LPS (Sigma-Aldrich—1 μg/well) or no mitogen, as well as test compound at a concentration of 10 μM in DMSO. Samples were analysed after a 3 day incubation at 37° C. in 5% CO2 in air. Cell viability was assessed by adding MTT to each well, incubating for a further 4 hrs and then developing colour with 0.04N HCl in isopropanol. Supernatant samples were frozen at −80° C. and IL-6, IFN-γ and TNFα were detected in triplicate using ELISA kits (BD Biosciences).

[2] = tested on: Skh:hr-1 albino mice (UV-induced skin thickening); assay: Murine model of UV irradiation-induced skin oedema; type: in vivo, mouse; conditions: for Change in skin thickness (mean ± SD, ×0.01 mm): 0.2 ml of 20 μM topical ×3
Description: Groups of 4-5 female Skh:hr-1 albino mice were irradiated with 1×3 MED (minimal erythemal dose) of solar simulated UV radiation, provided by a planar bank of 6 UVA tube (Hitachi 40W F40T 10/BL, black light) and one UVB tube (Philips TL 40W/12RS) with radiation filtered through a sheet of 0.125 mm cellulose acetate (Eastman Chemical Products, Kingport, Term, USA) to give 2.96×10-4 W/cm2 UVA and 1.59×10-5 W/cm2 UVB. The distance of the UV lamp from the irradiance table surface was approximately 20 cm and temperature was controlled with an electric fan. During irradiation, the cages were rotated below the lights to reduce the variation in radiation intensity in different positions.
Either test compound (0.2 ml of a 20 μM solution) or vehicle (propylene glycol/ethanol (EtOH)/water 1:2:1) was applied to the irradiated dorsal skin at 30 min, 2 h and 4 h post-irradiation. Dorsal skin fold measurements were made with a spring micrometer prior to and at 24 hr and 48 h post-UV exposure. The difference in skin thickness pre- and post-exposure to UVR was calculated for each mouse, and the differences examined between test compound and vehicle control were analysed using an unpaired two-tailed t test.
The data are presented in tables, as well as graphically as the mean percentage inhibition of skin fold thickness, calculated as [1−[(mean % change skin thickness of test group/mean % change skin thickness of control group)×100]].

TNFα = assay: LPS-induced TNFα synthesis in human monocytes; type: cell-based; conditions: 100 μM
Protocol: Test compounds (in DMSO) at 100, 10, and 1 μmol/ were incubated with monocytes at 37° C. for 30 min after which LPS was added (200 ng/ml) and cells were incubated in triplicate for 18 h at 37° C. in 5% CO2. […], supernatants were removed and TNFα measured by ELISA previously described.

IL-6 = IL-6 production by murine splenocytes; type: cell-based, mouse; conditions: 10 μM; Con A
Protocol: as §1

PPARγ = molecular target: T1, PPARγ (Homo sapiens, UniProt P37231); assay: PPARγ agonist activity, GAL4-PPARγ beta-lactamase reporter HEK293 cells; type: cell-based; conditions: FIG. 11: 5 μM
T1 construct: host or cells: HEK293 (human embryonic kidney), stably transfected
T1 sequence (P37231 238-503 limits assumed): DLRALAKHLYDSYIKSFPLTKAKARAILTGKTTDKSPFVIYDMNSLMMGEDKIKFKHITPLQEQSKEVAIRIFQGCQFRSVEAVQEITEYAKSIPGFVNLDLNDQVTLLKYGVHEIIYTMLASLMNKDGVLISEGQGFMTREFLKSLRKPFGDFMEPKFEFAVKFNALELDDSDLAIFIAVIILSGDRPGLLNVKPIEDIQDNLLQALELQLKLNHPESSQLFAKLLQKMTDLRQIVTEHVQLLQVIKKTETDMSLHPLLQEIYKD
Protocol: Human HEK293 cells, stably transfected with the PPARγ ligand binding domain fused with the DNA binding domain of the GAL4 protein (GAL4-PPARγ fusion protein), produce beta-lactamase when incubated with PPARγ ligands. Transfected human kidney embryonic cells (Invitrogen Inc., Carlsbad, Calif.) were seeded onto matrigel in 96-well plates and allowed to attach overnight. The following day, vehicle alone (DMSO) or test compound at 1, 5 and 10 μM was added at varying concentrations to cells and incubated for 16-18 hours. Cells were then loaded with a FRET-based fluorescent substrate to assess beta-lactamase activity. Cells were protected from light, and incubated at room temperature for 2 h. Plates were read on a fluorescence plate reader with an excitation wavelength of 409 nm and emission wavelengths of 460 nm and 530 nm. Results were expressed as a ratio of these two wavelengths after the background (cell-free control wells) had been subtracted. PPARγ activity was thus determined by measuring beta-lactamase activity as assessed by a fluorescent product to substrate ratio.

[3] = 24 hrs post-irradiation, vehicle 78 ± 23
[4] = 48 hrs post-irradiation, vehicle 147 ± 37

Structure (SMILES)	PPARγ activation (increase in beta-lactamase activity) (PPARγ)	NFκB promoter activity (NFκB)	proliferation of T and B cells [1]	effect on non-proliferating (resting) splenocytes [1]	Change in skin thickness (mean ± SD, ×0.01 mm) [2, 3]	Change in skin thickness (mean ± SD, ×0.01 mm) [2, 4]	synthesis of TNFα (TNFα)	IL-6 production in T cells (IL-6)	UV-induced inflammation at 48 hrs ([2]; 48 hrs)	UV-induced inflammation at 24 hrs ([2]; 24 hrs)
Cc1c(O)ccc2c1OCC(c1cccc(O)c1)=C2 [Cpd. 14, 3′,7-Dihydroxy-8-methylisoflav-3-ene]		significantly inhibited	augmented	augmented	77 ± 5.6 ×0.01 mm	137 ± 16 ×0.01 mm	inhibited			
COc1cccc(C2=Cc3ccc(O)cc3OC2)c1 [Cpd. 16, 7-Hydroxy-3′-methoxyisoflav-3-ene]	some PPARγ agonist activity		augmented	augmented	61 ± 13 ×0.01 mm	111 ± 15 ×0.01 mm		reduced		
COc1ccc(C2=Cc3ccc(O)cc3OC2)cc1OC [Cpd. 18, 7-Hydroxy-3′,4′-dimethoxyisoflav-3-ene]		significantly inhibited					inhibited	reduced		

Now from value to molecule, other results behind:

PPARγ activation (increase in beta-lactamase activity) (PPARγ)	Structure (SMILES)	NFκB promoter activity (NFκB)	proliferation of T and B cells [1]	effect on non-proliferating (resting) splenocytes [1]	Change in skin thickness (mean ± SD, ×0.01 mm) [2, 3]	Change in skin thickness (mean ± SD, ×0.01 mm) [2, 4]	synthesis of TNFα (TNFα)	IL-6 production in T cells (IL-6)	UV-induced inflammation at 48 hrs ([2]; 48 hrs)	UV-induced inflammation at 24 hrs ([2]; 24 hrs)
some PPARγ agonist activity	COc1ccc(C2=Cc3ccc(O)c(C)c3OC2)cc1OC [Cpd. 19, 7-Hydroxy-3′,4′-dimethoxy-8-methylisoflav-3-ene]	significantly inhibited			63 ± 8.1 ×0.01 mm	96 ± 5 ×0.01 mm	inhibited	reduced	significantly inhibited	
some PPARγ agonist activity	Oc1ccc(C2=Cc3ccc(O)c(Br)c3OC2)cc1 [Cpd. 20, 4′,7-Dihydroxy-8-bromoisoflav-3-ene]	significantly inhibited	inhibited	suppressive	38 ± 4 ×0.01 mm	123 ± 39 ×0.01 mm		most marked		significantly inhibited
